This passage reports IC50 results from ChEMBL document CHEMBL3351835, “Anti-inflammatory diterpenoids from the root bark of Acanthopanax gracilistylus” (J Nat Prod, 2014).

Type in all cases: functional, cell-based
Test [1] deals with PBMC. The test can be described thus: Antiinflammatory activity in human PBMC assessed as inhibition of LPS-induced IL-8 expression pretreated 1 hr before LPS challenge followed by incubated for 16 hrs by flow cytometry. (In general: In flow cytometry, cells or beads pass a laser one at a time.)
Test [2] concerns PBMC. The test can be described thus: Antiinflammatory activity in human PBMC assessed as inhibition of LPS-induced TNFalpha expression pretreated 1 hr before LPS challenge followed by incubated for 16 hrs by flow cytometry.
The test system of test [3] is PBMC. As to the kind of experiment: Antiinflammatory activity in human PBMC assessed as inhibition of LPS-induced IL-1beta expression pretreated 1 hr before LPS challenge followed by incubated for 16 hrs by flow cytometry.

The IC50 is the concentration that gives 50% inhibition. As for `C[C@@]12CCC[C@@](C)(C(=O)O)[C@H]1CC[C@]13C=C(CO)[C@H](CC[C@H]12)C3`, the IC50 in the test with PBMC [1] is more than 10 µM; in the test with PBMC [2], 0.01 µM; in the test with PBMC [3] it was 0.8 µM.

On to `C[C@@]12CCC[C@@](C)(C(=O)O)[C@H]1CC(=O)[C@]13CC(=O)[C@H](CC[C@H]12)C3`, for which the IC50 with PBMC [1] was more than 10 µM; in the test on PBMC [2], 0.002 µM; in the test on PBMC [3] it was 0.001 µM.

`C[C@@]12CCC[C@@](C)(C(=O)O)[C@H]1CC[C@@]13C[C@@H](CC[C@@H]21)[C@]1(CO)O[C@H]31`: the IC50 with PBMC [1] is more than 10 µM; in the test with PBMC [2], 0.06 µM; in the test on PBMC [3], 0.1 µM.

Take `C[C@@H]1C[C@H]2[C@@H]3CCC4=CC(=O)C=C[C@]4(C)[C@@]3(F)[C@@H](O)C[C@]2(C)[C@@]1(O)C(=O)CO` [DEXAMETHASONE]: the IC50 in the test on PBMC [1] turned out to be 0.009 µM; in the test with PBMC [2], 0.002 µM; with PBMC [3], 0.008 µM.

`Cc1cc(O)c2c(c1O)C(=O)C[C@@H]1[C@](C)(C(=O)O)CCC[C@@]21C`: the IC50 in the test with PBMC [1] was more than 10 µM; in the test with PBMC [2], 0.008 µM; with PBMC [3], more than 10 µM.

`C[C@@]12CCC[C@@](C)(C(=O)O)[C@H]1CC[C@]13C=C(C(=O)O)[C@H](CC[C@H]12)C3`: the IC50 in the test on PBMC [1] stood at 0.003 µM; in the test with PBMC [2], 2.1 µM; with PBMC [3], 7.5 µM.

For the molecule `COC(=O)[C@]1(C)CCC[C@@]2(C)[C@@H]3CC[C@@H]4C[C@]3(C=C4C=O)CC[C@@H]21`, the IC50 in the test on PBMC [1] is 0.006 µM; in the test on PBMC [2], 0.4 µM; in the test with PBMC [3] it was 0.005 µM.

In the case of `C[C@@]12CCC[C@@](C)(C(=O)O)[C@H]1CC(=O)[C@]13C[C@@H](CO)[C@H](CC[C@H]12)C3`, the IC50 in the test on PBMC [1] is more than 10 µM; in the test on PBMC [2], 0.1 µM; in the test on PBMC [3], 0.1 µM.

`C=C1C[C@@]23CC[C@H]4[C@@](C)(CCC[C@@]4(C)C(=O)O)[C@@H]2CC[C@@H]1C3` [KAURENOIC ACID]: the figures for the IC50 in the test with PBMC [1], in the test on PBMC [2] and with PBMC [3] were 7.7 µM, 0.002 µM and 0.01 µM, respectively.

Regarding `C[C@@]12CCC[C@@](C)(C(=O)O)[C@H]1CC(=O)[C@@]13C[C@@H](CC[C@H]12)[C@H](O)C3`, the concentration for half-maximal inhibition (IC50) in the test with PBMC [1] was more than 10 µM; in the test on PBMC [2], 0.02 µM; in the test on PBMC [3], 0.004 µM.

For the molecule `C=C[C@]1(C)C=C2C(=O)C[C@H]3[C@@](C)(CCC[C@@]3(C)C(=O)O)[C@@H]2CC1`, the IC50 was more than 10 µM in the test with PBMC [1], 0.007 µM in the test on PBMC [2] and 0.03 µM in the test on PBMC [3].

Consider `C[C@]12CCC3=C(CC[C@@H]4[C@](C)(C(=O)O)CCC[C@@]34C)[C@H]1OC[C@@H]2O`, for which the half-inhibitory concentration (IC50) was 0.001 µM with PBMC [1], more than 10 µM in the test on PBMC [2] and more than 10 µM in the test on PBMC [3].
